The text below walks through data of patent publication US20100160293A1, “Solid Ophthalmic Drug for External Use” (priority 2005, published 2010).

Counter-ions that a name gives are not always drawn.

The nature of this data set: SKIN-CAD simulation of ketotifen fumarate concentration profile in conjunctiva. Also noted: species or system rabbit. The following applies: simulation parameter. The source says:
The above data were fed into SKIN-CAD (Biocom Systems, Inc., Fukuoka, Japan), a software for analysis of skin permeation of drugs, together with the parameters for hairless mouse skin permeation and parameters for rabbit tear fluid kinetics, to simulate a ketotifen fumarate concentration profile in rabbit's conjunctiva.
According to references, the rate of uptake of absorbed drugs by the subvascular tissues in normal capillary vessels is around 3-5% (K. Tojo, Mathematical models of transdermal and topical drug delivery, 2nd edition, Biocom Systems, Fkuoka, Japan, 2005), and the above transfer rate of 3% (i.e., the rate of uptake into the tear fluid) almost agrees with this. Based on this rate of uptake (3%), the profile of drug concentration in the conjunctiva was simulated again, this time on the assumption that the solid pharmaceutical preparation was rubbed on the skin only once, not ten times, by replacing the parameter for drug thickness in SKIN-CAD with 1/10 of the value in the above test, i.e., with 0.005 cm.
As to the concentration of the drug in the conjunctiva, the results of the above test where the solid pharmaceutical preparation was applied (Table 10, 10 times application) and a graph produced by SKIN-CAD in agreement with the results, the data after the above topical instillation (Table 13), and the result of the simulation by SKIN-CAD where the solid pharmaceutical preparation was rubbed only once (1 time application) are shown together in FIG. 9.

[1] abbreviates: rabbit tear fluid pharmacokinetics.

`CN1CCC(=C2c3ccccc3CC(=O)c3sccc32)CC1` [ketotifen fumarate]: the “Absorption Rate Constant into Blood” value was 0.04 s⁻¹. For the same compound, for the setting “device design”, the “Device/Skin Partition Coefficient” value is reported as 5.80 × 10^−2 and the “Diffusion Coefficient in Device” value is listed as 1.97 × 10^−9 cm^2/sec. For the setting “hairless mouse skin permeation”, the “Diffusion Coefficient in Stratum Corneum” value is 1.12 × 10^−11 cm^2/sec, the “Diffusion Coefficient in Viable Skin” value was 3.75 × 10^−7 cm^2/sec and the “Stratum Corneum/Viable Skin Partition Coefficient” value is given as 2.47 × 10^2. For the same compound, under setting [1], the “Elimination Rate Constant, K10” value was 0.00385 s⁻¹ and the “Volume of Distribution, V1” value was 0.008 mL.
